We go through 18 compounds from patent US5506122A, “Process for producing nucleosides” (Yamasa Shoyu Kabushiki Kaisha, priority 1989, dated 1996).

Read-outs that look alike come from different tables or passages of the source.

Experiment [1] has as its target T1, purine nucleoside phosphorylase (Geobacillus stearothermophilus, UniProt P77834).
T1 construct: nucleoside phosphorylase obtained by extraction/purification from Bacillus stearothermophilus TH6-2; endogenous in cells; host or cells: Bacillus stearothermophilus TH6-2 (FERM BP-2758), enzyme purified in house from the wild cells
T1 sequence (P77834 1-274): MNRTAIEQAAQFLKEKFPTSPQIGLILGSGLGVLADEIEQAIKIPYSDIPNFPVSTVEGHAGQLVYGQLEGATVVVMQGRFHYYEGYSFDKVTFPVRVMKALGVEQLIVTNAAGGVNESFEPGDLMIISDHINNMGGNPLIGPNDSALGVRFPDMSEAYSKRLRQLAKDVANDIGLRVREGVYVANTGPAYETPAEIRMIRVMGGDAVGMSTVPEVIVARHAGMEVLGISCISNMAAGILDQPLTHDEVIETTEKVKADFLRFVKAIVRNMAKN
In words: Substrate specificity: phosphorolysis of purine nucleoside substrates by purified enzyme. Format: biochemical, Bacillus stearothermophilus TH6-2. The conditions noted are these: for activity at 10000 µM: 10 min; for Substrate specificity of purine nucleoside phosphorylase, in words: within the range tested. As to the method:
Into 1.0 ml of a substrate solution (aqueous solution of pH 8.0 containing 20 mM inosine and 0.1M potassium dihydrogenphosphate) is added 20 μl of an enzyme solution (50 mM acetate buffer (pH 6.0) containing 1 μg of purified enzyme), and the reaction is carried out at 50° C. for 10 minutes. Then the reaction is stopped by addition of HCl to a final concentration of 0.1N, and also cooling at 0° C. for 10 minutes. Next, the reaction is subjected to centrifugation, and the supernatant obtained is then subjected to the HPLC method (column: YMC A-312 (manufactured by Yamamura Kagaku Kenkyusho, K.K.), eluent: 20 mM Tris-HCl buffer (pH 7.5) containing 5.0% acetonitrile, detection: 260 nm) to quantitate the hypoxanthine formed. The enzyme amount forming 1 μmol of hypoxanthine per one minute is defined as one unit ("U").
(§1) By the use of an aqueous solution of pH 8.0 containing 10 mM of a nucleoside and 50 mM of potassium dihydrogenphosphate as a substrate solution, the reaction is carried out at 50° C. for 10 minutes, and after the reaction, except for quantitating the base of the nucleoside according to the HPLC method, the same method as in the assay of purine nucleoside phosphorylase activity is conducted.

Experiment [2] addresses T2, pyrimidine nucleoside phosphorylase (Geobacillus stearothermophilus, UniProt P77836).
T2 construct: nucleoside phosphorylase obtained by extraction/purification from Bacillus stearothermophilus TH6-2; endogenous in cells; host or cells: Bacillus stearothermophilus TH6-2 (FERM BP-2758), enzyme purified in house from the wild cells
T2 sequence (P77836 1-433): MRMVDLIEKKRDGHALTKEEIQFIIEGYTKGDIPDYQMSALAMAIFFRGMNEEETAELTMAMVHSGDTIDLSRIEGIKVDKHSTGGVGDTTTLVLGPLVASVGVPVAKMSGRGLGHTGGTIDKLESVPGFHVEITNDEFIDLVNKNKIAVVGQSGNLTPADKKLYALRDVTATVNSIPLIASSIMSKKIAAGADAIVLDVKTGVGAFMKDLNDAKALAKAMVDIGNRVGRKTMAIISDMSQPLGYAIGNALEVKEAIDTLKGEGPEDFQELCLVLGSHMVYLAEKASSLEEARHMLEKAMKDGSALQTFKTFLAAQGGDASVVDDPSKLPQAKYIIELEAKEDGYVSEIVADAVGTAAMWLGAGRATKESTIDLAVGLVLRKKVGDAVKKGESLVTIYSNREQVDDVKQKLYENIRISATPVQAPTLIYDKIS
In words: Substrate specificity: phosphorolysis of pyrimidine nucleoside substrates by purified enzyme. It counts as biochemical, Bacillus stearothermophilus TH6-2. The conditions noted are these: for Amount of Base Formed / Relative Activity: 10 mM nucleoside, 50 mM potassium dihydrogenphosphate, pH 8.0, 50° C., 10 minutes; for Substrate specificity of pyrimidine nucleoside phosphorylase, in words: within the range tested. As to the method: Except for using uridine in place of inosine in the substrate solution and quantitating uracil according to the HPLC method, the same method as in the above-described assay of purine nucleoside phosphorylase activity is conducted. The amount of enzyme forming 1 μmol of uracil per one minute is defined as one unit.
as §1

Where [3] appears, read: 10 mM nucleoside, 50 mM potassium dihydrogenphosphate, pH 8.0, 50° C., 10 minutes.
Where [4] appears, read: 10 mM nucleoside, 50 mM potassium dihydrogenphosphate, pH 8.0, 50° C., 10 minutes, read-out: Relative Activity.
Where [5] appears, read: pH 8, read-out: Relative Activity.

For the compound `Nc1ncnc2c1ncn2[C@H]1C[C@H](O)[C@@H](CO)O1` [2'-Deoxyadenosine], in experiment [1] (setting [3]), the “Amount of Base Formed” value is 0 μmol/10 min. Besides, in experiment [1] (setting [4]), the activity at 10000 µM was 0%.
Consider `Nc1ccn([C@H]2C[C@H](O)[C@@H](CO)O2)c(=O)n1` [2'-Deoxycytidine], for which, in experiment [2], the “Amount of Base Formed” value was 0 μmol/10 min and the “Relative Activity” value was found to be 0%.
On to `Nc1nc2c(ncn2[C@H]2C[C@H](O)[C@@H](CO)O2)c(=O)[nH]1` [2'-Deoxyguanosine], for which the “Amount of Base Formed” value in experiment [1] (setting [3]) was 2.18 μmol/10 min. Besides, in experiment [1] (setting [4]), the activity at 10000 µM was 85%. Further, the “Substrate specificity of purine nucleoside phosphorylase, in words” value in experiment [1] is listed as “specific”.
The like results for `OC[C@H]1O[C@@H](n2cnc3c(O)ncnc32)C[C@@H]1O` [2'-Deoxyinosine] were, in that order, 2.54 μmol/10 min, 100% and “specific”.
On to `O=c1ccn([C@H]2C[C@H](O)[C@@H](CO)O2)c(=O)[nH]1` [2'-Deoxyuridine], for which, in experiment [2], the “Amount of Base Formed” value was determined as 2.55 μmol/10 min; the “Relative Activity” value is on record as 100%; the “Substrate specificity of pyrimidine nucleoside phosphorylase, in words” value is reported as “specific”.
With `Nc1ncnc2c1ncn2[C@@H]1O[C@H](CO)C[C@H]1O` [3'-Deoxyadenosine], the “Amount of Base Formed” value in experiment [1] (setting [3]) is 0 μmol/10 min. Moreover, in experiment [1] (setting [4]), the activity at 10000 µM is 0%.
For `OC[C@@H]1C[C@@H](O)[C@H](n2cnc3c(O)ncnc32)O1` [3'-Deoxyinosine] the same measures were 0 μmol/10 min and 0%.
As for `Nc1ncnc2c1ncn2[C@@H]1O[C@H](CO)[C@@H](O)[C@H]1O` [Adenosine], in experiment [1] (setting [3]), the “Amount of Base Formed” value is given as 0.15 μmol/10 min. Besides, the activity at 10000 µM in experiment [1] (setting [5]) was 5%. In addition, the “Substrate specificity of purine nucleoside phosphorylase, in words” value in experiment [1] is given as “does not recognize them as the substrate”.
On to `Nc1ncnc2c1ncn2[C@@H]1O[C@H](CO)[C@@H](O)[C@@H]1O` [Arabinofuranosyl adenine], for which the activity at 10000 µM in experiment [1] (setting [5]) was 0%.
On to `O=c1ccn([C@@H]2O[C@H](CO)[C@@H](O)[C@@H]2O)c(=O)[nH]1` [Arabinofuranosyl uracil], for which the “Relative Activity” value in experiment [2] was found to be 0%.
For the compound `O=c1ccn2c(n1)O[C@H]1[C@H](O)[C@@H](CO)O[C@H]12` [Cyclouridine], in experiment [2], the “Amount of Base Formed” value was 0 μmol/10 min and the “Relative Activity” value stood at 0%.
In the case of `Nc1ccn([C@@H]2O[C@H](CO)[C@@H](O)[C@H]2O)c(=O)n1` [Cytidine], in experiment [2], the “Amount of Base Formed” value was 0 μmol/10 min; the “Relative Activity” value worked out at 0%; the “Substrate specificity of pyrimidine nucleoside phosphorylase, in words” value is “does not recognize them as the substrate”.
As for `Nc1nc2c(ncn2[C@@H]2O[C@H](CO)[C@@H](O)[C@H]2O)c(=O)[nH]1` [Guanosine], the “Amount of Base Formed” value in experiment [1] (setting [3]) was determined as 2.15 μmol/10 min. The activity at 10000 µM in experiment [1] (setting [4]) was 84%. Further, the “Substrate specificity of purine nucleoside phosphorylase, in words” value in experiment [1] is given as “specific”.
The like results for `OC[C@H]1O[C@@H](n2cnc3c(O)ncnc32)[C@H](O)[C@@H]1O` [Inosine] were, in that order, 2.55 μmol/10 min, 100% and “specific”.
Take `O=c1[nH]cc([C@@H]2O[C@H](CO)[C@@H](O)[C@H]2O)c(=O)[nH]1` [Pseudouridine]: in experiment [2], the “Amount of Base Formed” value came out at 0 μmol/10 min and the “Relative Activity” value came to 0%.
`Cc1cn([C@@H]2O[C@H](CO)[C@@H](O)[C@H]2O)c(=O)[nH]c1=O` [Ribofuranosyl thymine]: in experiment [2], the “Relative Activity” value came out at 38%.
For the compound `Cc1cn([C@H]2C[C@H](O)[C@@H](CO)O2)c(=O)[nH]c1=O` [Thymidine], in experiment [2], the “Amount of Base Formed” value is reported as 1.71 μmol/10 min; the “Relative Activity” value is 67%; the “Substrate specificity of pyrimidine nucleoside phosphorylase, in words” value is “specific”.
For `O=c1ccn([C@@H]2O[C@H](CO)[C@@H](O)[C@H]2O)c(=O)[nH]1` [Uridine] the same measures were 1.73 μmol/10 min, 68% and “specific”.
